In this assay the target is T1, OR51E1 olfactory receptor (Homo sapiens, UniProt Q8TCB6, K299R).
T1 construct: expressed in transfected cells
T1 sequence (Q8TCB6 2-318 K299R limits assumed): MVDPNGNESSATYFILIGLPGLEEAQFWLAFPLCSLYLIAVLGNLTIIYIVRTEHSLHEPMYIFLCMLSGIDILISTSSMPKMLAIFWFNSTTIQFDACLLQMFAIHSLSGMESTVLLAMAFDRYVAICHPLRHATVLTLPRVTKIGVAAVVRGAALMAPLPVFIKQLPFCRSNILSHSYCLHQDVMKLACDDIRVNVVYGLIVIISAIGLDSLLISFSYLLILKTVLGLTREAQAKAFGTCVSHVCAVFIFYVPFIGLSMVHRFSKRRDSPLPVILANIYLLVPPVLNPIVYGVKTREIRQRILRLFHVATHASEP
The assay can be described thus: Butyric acid olfactory receptor antagonist cell-based inhibitory dose-response assay.

The mark [1] stands for this setting: Table 4, butyric acid at single activating concentration (EC94).
The mark [2] stands for this setting: Table 5, agonist concentration not given.
The mark [3] stands for this setting: Table 5, butyric acid olfactory receptor antagonists, agonist concentration not given.

SMILES strings stand for the structures. Structures can show the parent of a compound that is named as a salt. A value given as a limit tells only on which side of the number the result lay.

For orientation: IC50 means the concentration needed to halve the response being measured. Higher therefore signals weaker potency.

`CC(=O)O[C@H]([C@H]1CCCC[C@@H]1C)C(C)(C)C` (racemic) [[(1~{R})-2,2-dimethyl-1-[(1~{S},2~{S})-2-methylcyclohexyl]propyl] acetate] gave a half-maximal inhibitory concentration (IC50) under setting [1] of 170 µM.
Consider `C[C@H]1CCCC2(CCCC[C@@H]2C)[C@@H]1O` (single isomer, unassigned) [(4~{S},5~{R},6~{S},11~{S})-4,11-dimethylspiro[5.5]undecan-5-ol], for which, for the setting “Table 4, butyric acid at EC94”, the “Inhibition (%)” value is 54%. This compound came in with an IC50 under setting [1] of 76.9 µM.
`C=C1C(C)(C)CCCC12CC1(C)OC1(C)C2` (centres unmarked) [1,1′,1′,5-tetramethyl-2′-methylidenespiro[6-oxabicyclo[3.1.0]hexane-3,3′-cyclohexane]]: the “Inhibition (%)” value (Table 4, butyric acid at EC94) is listed as 37%. Besides, the IC50 under setting [1] turned out to be 75.7 µM.
With `CC(=O)C1(C)CC(C)C23CCC(CC12)C3` (centres unmarked) [1-(2,4-dimethyl-4-tricyclo[5.2.1.0^{1,5}]decanyl)ethanone], the “Inhibition (%)” value under setting [2] was 26%. The IC50 under setting [3] came to 60.5 µM.
As to `CC(=O)OC(C)C1(C)CC(C)C23CCC(CC12)C3` (centres unmarked) [1-(2,4-dimethyl-4-tricyclo[5.2.1.0^{1,5}]decanyl)ethyl acetate], the “Inhibition (%)” value under setting [2] came out at 34%. Moreover, the IC50 under setting [3] was determined as 54.8 µM.
For the compound `CC1C=CCC(C)C1C(O)C(C)(C)C` (centres unmarked) [1-(2,6-dimethylcyclohex-3-en-1-yl)-2,2-dimethylpropan-1-ol], the “Inhibition (%)” value (Table 4, butyric acid at EC94) is listed as 31%. The IC50 under setting [1] is 321 µM.
For `CC(=O)OC(C)C1CC(C)C23CCC(CC12)C3` (centres unmarked) [1-(2-methyl-4-tricyclo[5.2.1.0^{1,5}]decanyl)ethyl acetate], under setting [2], the “Inhibition (%)” value turned out to be 23%. The IC50 under setting [3] amounted to 97 µM.
On to `CC(=O)[C@@]1(C)C(C)[C@H](C)[C@@]23CC[C@H](CC12)C3` (some centres unmarked) [1-[(1~{S},2~{S},4~{S},7~{R})-2,3,4-trimethyl-4-tricyclo[5.2.1.0^{1,5}]decanyl]ethanone], for which the IC50 under setting [3] was found to be 32.6 µM.
On to `C=CCC1(OC)C(C)CCCC1C` (centres unmarked) [1-methoxy-2,6-dimethyl-1-prop-2-enylcyclohexane], for which the “Inhibition (%)” value (Table 4, butyric acid at EC94) is 61%. Under setting [1], this compound returned an IC50 of 100 µM.
For `C=C(C)CC1(CC(=C)C)CCC(C)(C)C1O` (centres unmarked) [2,2-dimethyl-5,5-bis(2-methylprop-2-enyl)cyclopentan-1-ol], in that order: 119% and 35.1 µM.
Take `C=C(C)CC1(CC(=C)C)CCC(C)(C)C1=O` [2,2-dimethyl-5,5-bis(2-methylprop-2-enyl)cyclopentan-1-one]: the “Inhibition (%)” value (Table 4, butyric acid at EC94) worked out at 82%. Moreover, under setting [1], the IC50 came to 51.7 µM.
For `C=C(C)CC1(CC(=C)C)CCCC(C)(C)C1O` (centres unmarked) [2,2-dimethyl-6,6-bis(2-methylprop-2-enyl)cyclohexan-1-ol], in that order: 110% and 125 µM.
For `C=C(C)CC1(CC(=C)C)CCCC(C)(C)C1=O` [2,2-dimethyl-6,6-bis(2-methylprop-2-enyl)cyclohexan-1-one], in that order: 103% and 46.6 µM.
On to `CC1C(C)C23CCC(CC2C1(C)C=O)C3` (centres unmarked) [2,3,4-trimethyltricyclo[5.2.1.0^{1,5}]decane-4-carbaldehyde], for which, under setting [2], the “Inhibition (%)” value came out at 28%. The compound further registered a half-maximal inhibitory concentration (IC50) under setting [3] of 270 µM.
For `CC1=C(C)CC2(CCC(C)(C)C2=O)C1` [2,3,8,8-tetramethylspiro[4.4]non-2-en-9-one], where the note is “Table 4, butyric acid at EC94”, the “Inhibition (%)” value was determined as 10%. The same compound showed an IC50 under setting [1] of 198 µM.
Consider `CC1=C(C)CC2(CCCC(C)(C)C2O)C1` (centres unmarked) [2,3,9,9-tetramethylspiro[4.5]dec-2-en-10-ol], for which the “Inhibition (%)” value (Table 4, butyric acid at EC94) is on record as 16%. The IC50 under setting [1] amounted to 78.7 µM.
For `CC1CC2(CCCC(C)(C)C2O)CC1C` (centres unmarked) [2,3,9,9-tetramethylspiro[4.5]decan-10-ol] the same measures were 12% and 120 µM.
For `CC1=CC(C)C2(CCCC(C)(C)C2O)C1` (centres unmarked) [2,4,9,9-tetramethylspiro[4.5]dec-2-en-10-ol], in that order: 22% and 81.6 µM.
For `CC1=CC(C)C2(CCCC(C)(C)C2=O)C1` (centres unmarked) [2,4,9,9-tetramethylspiro[4.5]dec-2-en-10-one] the same measures were 63% and 110 µM.
Consider `C=CCC1(C(C)C=C)CCCC(C)(C)C1=O` (centres unmarked) [2-but-3-en-2-yl-6,6-dimethyl-2-prop-2-enylcyclohexan-1-one], for which the “Inhibition (%)” value (Table 4, butyric acid at EC94) was 115%. The same compound yielded an IC50 under setting [1] of 76.4 µM.
For `CC1=CCC2(CCCCC2O)C(C(C)C)C1` (centres unmarked) [3-methyl-5-propan-2-ylspiro[5.5]undec-2-en-11-ol] the same measures were 144% and 366 µM.
For `CC1C=CCC12CCCC(C)(C)C2=O` (centres unmarked) [4,9,9-trimethylspiro[4.5]dec-2-en-10-one], in that order: 102% and 268 µM.
For `COC1C(C)(C)CCC12CCCC2` (centres unmarked) [4-methoxy-3,3-dimethylspiro[4.4]nonane] the same measures were 105% and 337 µM.
For the compound `CC1(C)CCCC2(CC=CC2)C1O` (centres unmarked) [9,9-dimethylspiro[4.5]dec-2-en-10-ol], for the setting “Table 4, butyric acid at EC94”, the “Inhibition (%)” value stood at 91%. Under setting [1], this compound showed an IC50 of 44.1 µM.
For `CC1(C)CCCC2(CC=CC2)C1=O` [9,9-dimethylspiro[4.5]dec-2-en-10-one] the same measures were 23% and 135 µM.
For `COC1C(C)(C)CCC12CC=CC2` (centres unmarked) [9-methoxy-8,8-dimethylspiro[4.4]non-2-ene] the same measures were 100% and 238 µM.
As for `COC1C(C)(C)CCCC12CC=CC2` (centres unmarked) [10-methoxy-9,9-dimethylspiro[4.5]dec-2-ene], the “Inhibition (%)” value (Table 4, butyric acid at EC94) was 33%. In addition, under setting [1], the IC50 was 120 µM.
For `CC1CCCCC12CCCCC2O` (centres unmarked) [11-methylspiro[5.5]undecan-5-ol], in that order: 52% and 68.8 µM.
As for `CC(=O)OC1C(C)(C)CCCC12C(C)C=CCC2C` (centres unmarked) [(1,5,10,10-tetramethylspiro[5.5]undec-3-en-11-yl) acetate], the “Inhibition (%)” value (Table 4, butyric acid at EC94) turned out to be 72%. The compound further returned a half-inhibitory concentration (IC50) under setting [1] of 72.3 µM.
For `CC(=O)OC1C(C)(C)CCCC12CC(C)(C)C(C)(C)C2` (centres unmarked) [(2,2,3,3,9,9-hexamethylspiro[4.5]decan-10-yl) acetate], in that order: 39% and 425 µM.
On to `CC(=O)OCC1(C)C(C)C(C)C23CCC(CC12)C3` (centres unmarked) [(2,3,4-trimethyl-4-tricyclo[5.2.1.0^{1,5}]decanyl)methyl acetate], for which the “Inhibition (%)” value under setting [2] is reported as 27%. The IC50 under setting [3] was found to be 60.8 µM.
In the case of `CC(=O)OC1C(C)(C)CCCC12CC(C)=C(C)C2` (centres unmarked) [(2,3,9,9-tetramethylspiro[4.5]dec-2-en-10-yl) acetate], the “Inhibition (%)” value (Table 4, butyric acid at EC94) worked out at 116%. The IC50 under setting [1] was above 600 µM.
For `CC1=C(C)CC2(CCCC(C)(C)C2OC=O)C1` (centres unmarked) [(2,3,9,9-tetramethylspiro[4.5]dec-2-en-10-yl) formate] the same measures were 69% and 25.9 µM.
For `CC(=O)OC1C(C)(C)CCCC12CC(C)C(C)C2` (centres unmarked) [(2,3,9,9-tetramethylspiro[4.5]decan-10-yl) acetate] the same measures were 62% and 51.4 µM.
For `CC(=O)OC1C(C)(C)CCCC12CC(C)=CC2C` (centres unmarked) [(2,4,9,9-tetramethylspiro[4.5]dec-2-en-10-yl) acetate] the same measures were 131% and 34.8 µM.
In the case of `CC(=O)OC1C(C)(C)CCCC12CC=C(C)CC2C` (centres unmarked) [(3,5,10,10-tetramethylspiro[5.5]undec-2-en-11-yl) acetate], for the setting “Table 4, butyric acid at EC94”, the “Inhibition (%)” value is reported as 104%. Besides, the IC50 under setting [1] was determined as 71.4 µM.
With `CC(=O)OC1C(C)(C)CCCC12CC=CC2C` (centres unmarked) [(4,9,9-trimethylspiro[4.5]dec-2-en-10-yl) acetate], the “Inhibition (%)” value (Table 4, butyric acid at EC94) is reported as 106%. The same compound had an IC50 under setting [1] of 48.5 µM.
Take `CC1CC=CCC12CCCC(C)(C)C2OC=O` (centres unmarked) [(5,10,10-trimethylspiro[5.5]undec-2-en-11-yl) formate]: the “Inhibition (%)” value (Table 4, butyric acid at EC94) came out at 129%. The IC50 under setting [1] came out at 44.4 µM.
For `CC(=O)OC1C(C)(C)CCC12CC=CC2` (centres unmarked) [(8,8-dimethylspiro[4.4]non-2-en-9-yl) acetate], in that order: 107% and 488 µM.
Regarding `CC(=O)OC1C(C)(C)CCCC12CC=CC2` (centres unmarked) [(9,9-dimethylspiro[4.5]dec-2-en-10-yl) acetate], the “Inhibition (%)” value (Table 4, butyric acid at EC94) is 32%. Also, under setting [1], inhibition was half-maximal at 90.3 µM (IC50).
For `CC(=O)OC(C1C(C)C=C(C)CC1C)C(C)(C)C` (stereo not drawn) [[2,2-dimethyl-1-(2,4,6-trimethylcyclohex-3-en-l-yl)propyl] acetate], in that order: 89% and 52.6 µM.
For `CC(=O)OC(C1C(C)CC(C)CC1C)C(C)(C)C` (centres unmarked) [[2,2-dimethyl-1-(2,4,6-trimethylcyclohexyl)propyl] acetate] the same measures were 101% and 242 µM.
Under setting [3], `CC(=NO)C1(C)C(C)C(C)[C@]23CC[C@H](CC12)C3` (some centres unmarked) [~{N}-[1-[(1~{R},7~{R})-2,3,4-trimethyl-4-tricyclo[5.2.1.0^{1,5}]decanyl]ethylidene]hydroxylamine] gave an IC50 of 79.7 µM.
Regarding `CC(=NO)C1C(C)C(C)C23CCC(CC12)C3` (centres unmarked) [~{N}-[1-[(1~{S},7~{R})-2,3-dimethyl-4-tricyclo[5.2.1.0^{1,5}]decanyl]ethylidene]hydroxylamine], under setting [2], the “Inhibition (%)” value was 19%. The IC50 under setting [3] came out at 76.6 µM.
Turning to `CC1CC(C)(C=NO)C2C[C@H]3CC[C@]12C3` (some centres unmarked) [~{N}-[[(1~{S},7~{R})-2,4-dimethyl-4-tricyclo[5.2.1.0^{1,5}]decanyl]methylidene]hydroxylamine], under setting [3], the IC50 came to 88.5 µM.

For the origin of these results see patent US20250327793A1, “METHODS OF IDENTIFYING COMPOUNDS THAT MODULATE LAUNDRY MALODOR, MOLDY MALODOR, OR SWEAT MALODOR” (Firmenich SA, priority 2017, published 2025).
